Data as given in patent US10758534B2 (Vertex Pharmaceuticals Incorporated, priority 2014, dated 2020).
Each block holds one compound with its values, some of them ahead of it.

Target: T1, F508del (Homo sapiens, UniProt P13569, DEL508-508)
T1 construct: expressed in transfected cells
Experiment: Protocol 2: FRET membrane potential optical assay (VIPR), identification of correction compounds
Format: cell-based
Details: F508del CFTR modulator activity; compounds of Table 1; read-out: EC30
How it was run: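 NIH3T3 mouse fibroblasts stably expressing F508del-CFTR incubated with compound 16 h at 37 °C in serum-free medium, then loaded with CC2-DMPE/DiSBAC2(3) FRET dyes. Channel activated with 10 μM forskolin plus 20 μM genistein in Cl⁻-free (gluconate) bath; depolarisation from Cl⁻ efflux read on VIPR II.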

T1 sequence (P13569 with tags, fused parts or gaps DEL508-508): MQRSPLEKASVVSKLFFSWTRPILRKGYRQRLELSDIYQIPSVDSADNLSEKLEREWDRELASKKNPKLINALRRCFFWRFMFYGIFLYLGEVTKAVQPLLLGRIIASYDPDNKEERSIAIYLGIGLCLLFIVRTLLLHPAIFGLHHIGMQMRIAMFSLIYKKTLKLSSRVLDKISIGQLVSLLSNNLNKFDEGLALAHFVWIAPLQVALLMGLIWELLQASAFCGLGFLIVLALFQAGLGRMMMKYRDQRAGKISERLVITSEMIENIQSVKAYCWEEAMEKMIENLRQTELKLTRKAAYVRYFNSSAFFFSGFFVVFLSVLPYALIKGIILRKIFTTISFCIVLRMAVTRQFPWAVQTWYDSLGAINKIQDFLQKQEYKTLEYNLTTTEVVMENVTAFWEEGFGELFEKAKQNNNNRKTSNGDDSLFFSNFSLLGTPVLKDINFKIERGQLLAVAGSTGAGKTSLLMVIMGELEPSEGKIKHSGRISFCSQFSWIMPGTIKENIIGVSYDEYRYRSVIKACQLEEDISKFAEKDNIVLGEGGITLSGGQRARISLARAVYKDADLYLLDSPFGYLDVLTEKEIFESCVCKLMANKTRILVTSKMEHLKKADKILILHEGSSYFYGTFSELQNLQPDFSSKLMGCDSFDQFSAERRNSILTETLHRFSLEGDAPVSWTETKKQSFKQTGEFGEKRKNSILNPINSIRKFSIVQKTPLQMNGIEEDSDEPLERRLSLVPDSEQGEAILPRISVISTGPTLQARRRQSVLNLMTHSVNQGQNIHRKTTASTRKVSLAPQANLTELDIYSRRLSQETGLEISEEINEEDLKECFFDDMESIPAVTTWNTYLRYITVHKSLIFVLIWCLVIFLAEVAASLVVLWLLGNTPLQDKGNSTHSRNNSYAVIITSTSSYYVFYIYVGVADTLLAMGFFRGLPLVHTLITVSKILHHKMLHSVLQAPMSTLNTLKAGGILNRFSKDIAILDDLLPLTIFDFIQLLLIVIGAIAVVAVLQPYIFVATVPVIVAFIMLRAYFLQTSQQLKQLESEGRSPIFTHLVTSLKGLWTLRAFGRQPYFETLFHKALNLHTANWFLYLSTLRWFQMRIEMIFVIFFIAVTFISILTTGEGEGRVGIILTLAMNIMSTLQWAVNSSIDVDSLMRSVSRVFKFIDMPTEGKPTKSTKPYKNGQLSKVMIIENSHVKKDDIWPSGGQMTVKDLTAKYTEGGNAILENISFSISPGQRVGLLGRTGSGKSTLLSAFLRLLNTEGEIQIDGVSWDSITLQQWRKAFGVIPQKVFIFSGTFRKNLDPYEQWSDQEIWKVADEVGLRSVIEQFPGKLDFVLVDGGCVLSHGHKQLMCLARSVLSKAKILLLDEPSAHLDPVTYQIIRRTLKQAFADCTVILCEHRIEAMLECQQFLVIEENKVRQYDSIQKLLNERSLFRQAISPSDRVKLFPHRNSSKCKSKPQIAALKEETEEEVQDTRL

EC30: < 3000 nM
SMILES: C[C@@H]1CN(c2nc(-c3ccc(OC(F)(F)F)cc3)ccc2C(=O)NS(=O)(=O)c2cccnc2N)C(C)(C)C1 [Compound 2223, N-[(2-amino-3-pyridyl)sulfonyl]-6-[4-(trifluoromethoxy)phenyl]-2-[(4S)-2,2,4-trimethylpyrrolidin-1-yl]pyridine-3-carboxamide]

EC30: < 3000 nM
SMILES: CCOc1cc(C)c(-c2ccc(C(=O)NS(=O)(=O)c3cccc(N)n3)c(N3C[C@@H](C)CC3(C)C)n2)cc1C [Compound 2227, N-[(6-amino-2-pyridyl)sulfonyl]-6-(4-ethoxy-2,5-dimethyl-phenyl)-2-[(4S)-2,2,4-trimethylpyrrolidin-1-yl]pyridine-3-carboxamide]

EC30: < 3000 nM
SMILES: CC1CN(c2nc(OC(C)C)c(F)cc2C(=O)NS(=O)(=O)c2cccc(N)n2)C(C)(C)C1 (centres unmarked) [Compound 2230, N-[(6-amino-2-pyridyl)sulfonyl]-5-fluoro-6-isopropoxy-2-(2,2,4-trimethylpyrrolidin-1-yl)pyridine-3-carboxamide]

EC30: 3000 to 10000 nM
SMILES: Cc1cc(O)cc(-c2ccc(C(=O)NS(=O)(=O)c3cccc(N)n3)c(N3C[C@@H](C)CC3(C)C)n2)c1 [Compound 2232, N-[(6-amino-2-pyridyl)sulfonyl]-6-(3-hydroxy-5-methyl-phenyl)-2-[(4S)-2,2,4-trimethylpyrrolidin-1-yl]pyridine-3-carboxamide]

EC30: < 3000 nM
SMILES: CCOc1cccc(-c2ccc(C(=O)NS(=O)(=O)c3ccc[nH]c3=O)c(N3C[C@@H](C)CC3(C)C)n2)c1 [Compound 2235, 6-(3-ethoxyphenyl)-N-[(2-oxo-1H-pyridin-3-yl)sulfonyl]-2-[(4S)-2,2,4-trimethylpyrrolidin-1-yl]pyridine-3-carboxamide]

EC30: < 3000 nM
SMILES: C[C@@H]1CN(c2nc(C3=CCCN(C(=O)Cc4ccccc4)C3)ccc2C(=O)NS(=O)(=O)c2cccc(NC(=O)Cc3ccccc3)n2)C(C)(C)C1 [Compound 2243, N—[[6-[(2-phenylacetyl)amino]-2-pyridyl]sulfonyl]-6-[1-(2-phenylacetyl)-3,6-dihydro-2H-pyridin-5-yl]-2-[(4S)-2,2,4-trimethylpyrrolidin-1-yl]pyridine-3-carboxamide]

EC30: < 3000 nM
SMILES: C[C@@H]1CN(c2nc(-c3cccc(OC(F)(F)F)c3)ccc2C(=O)NS(=O)(=O)c2cccnc2N)C(C)(C)C1 [Compound 2245, N-[(2-amino-3-pyridyl)sulfonyl]-6-[13-(trifluoromethoxy)phenyl]-2-[(4S)-2,2,4-trimethylpyrrolidin-1-yl]pyridine-3-carboxamide]

EC30: < 3000 nM
SMILES: CC(C)Cc1ccc(C(=O)NS(=O)(=O)c2ccccc2)c(N2C[C@@H](C)CC2(C)C)n1 [Compound 2246, N-(benzenesulfonyl)-6-isobutyl-2-[(4S)-2,2,4-trimethylpyrrolidin-1-yl]pyridine-3-carboxamide]

EC30: < 3000 nM
SMILES: CCOc1nn(-c2ccc(C(=O)NS(=O)(=O)c3cccnc3N)c(N3C[C@@H](C)CC3(C)C)n2)cc1C [Compound 2248, N-[(2-amino-3-pyridyl)sulfonyl]-6-(3-ethoxy-4-methyl-pyrazol-1-yl)-2-[(4S)-2,2,4-trimethylpyrrolidin-1-yl]pyridine-3-carboxamide]

The next lines start with the compound.

SMILES: CC(C)COc1cc(F)cc(-c2ccc(C(=O)NS(=O)(=O)c3cccc(N)n3)c(N3CC4CC(C3)C4C)n2)c1 (centres unmarked) [Compound 2224, N-[(6-amino-2-pyridyl)sulfonyl]-6-(3-fluoro-5-isobutoxy-phenyl)-2-(6-methyl-3-azabicyclo[3.1.1]heptan-3-yl)pyridine-3-carboxamide]
EC30: < 3000 nM

SMILES: Cc1cccc(-c2ccc(C(=O)NS(=O)(=O)N3CC[C@H](N)C3)c(N3C[C@@H](C)CC3(C)C)n2)c1C [Compound 2225, N-[(3S)-3-aminopyrrolidin-1-yl]sulfonyl-6-(2,3-dimethylphenyl)-2-[(4S)-2,2,4-trimethylpyrrolidin-1-yl]pyridine-3-carboxamide]
EC30: 3000 to 10000 nM

SMILES: CCCC(C)N1CCN(c2cccc(S(=O)(=O)NC(=O)c3cccnc3N3CC(C)CC3(C)C)n2)CC1 (centres unmarked) [Compound 2226, N—[[6-[4-(1-methylbutyl)piperazin-1-yl]-2-pyridyl]sulfonyl]-2-(2,2,4-trimethylpyrrolidin-1-yl)pyridine-3-carboxamide]
EC30: 3000 to 10000 nM

SMILES: CC(C)COc1cc(F)cc(-c2ccc(C(=O)NS(=O)(=O)N3CC[C@H](F)C3)c(N3C[C@@H](C)CC3(C)C)n2)c1 [Compound 2228, 6-(3-fluoro-5-isobutoxy-phenyl)-N-[(3S)-3-fluoropyrrolidin-1-yl]sulfonyl-2-[(4S)-2,2,4-trimethylpyrrolidin-1-yl]pyridine-3-carboxamide]
EC30: < 3000 nM

SMILES: C[C@@H]1CN(c2nc(-c3ccc(F)c(F)c3)ccc2C(=O)NS(=O)(=O)N2CC[C@H](N)C2)C(C)(C)C1 [Compound 2229, N-[(3S)-3-aminopyrrolidin-1-yl]sulfonyl-6-(3,4-difluorophenyl)-2-[(4S)-2,2,4-trimethylpyrrolidin-1-yl]pyridine-3-carboxamide]
EC30: 3000 to 10000 nM

SMILES: CC(C)Cn1cc(-c2ccc(C(=O)NS(=O)(=O)c3cccnc3N)c(N3C[C@@H](C)CC3(C)C)n2)cn1 [Compound 2231, N-[(2-amino-3-pyridyl)sulfonyl]-6-(1-isobutylpyrazol-4-yl)-2-[(4S)-2,2,4-trimethylpyrrolidin-1-yl]pyridine-3-carboxamide]
EC30: < 3000 nM

SMILES: COc1cccc(Oc2cccc(S(=O)(=O)NC(=O)c3cccnc3N3CC(C)CC3(C)C)n2)c1OC (centres unmarked) [Compound 2233, N—[[6-(2,3-dimethoxyphenoxy)-2-pyridyl]sulfonyl]-2-(2,2,4-trimethylpyrrolidin-1-yl)pyridine-3-carboxamide]
EC30: < 3000 nM

SMILES: C[C@@H]1CN(c2nc(-c3ccc(OC(F)(F)F)cc3)ccc2C(=O)NS(=O)(=O)c2ccc[nH]c2=O)C(C)(C)C1 [Compound 2234, N-[(2-oxo-1H-pyridin-3-yl)sulfonyl]-6-[4-(trifluoromethoxy)phenyl]-2-[(4S)-2,2,4-trimethylpyrrolidin-1-yl]pyridine-3-carboxamide]
EC30: < 3000 nM

SMILES: C[C@@H]1CN(c2nc(-c3cc(F)cc(F)c3)ccc2C(=O)NS(=O)(=O)c2cccc(N)n2)C(C)(C)C1 [Compound 2236, N-[(6-amino-2-pyridyl)sulfonyl]-6-(3,5-difluorophenyl)-2-[(4S)-2,2,4-trimethylpyrrolidin-1-yl]pyridine-3-carboxamide]
EC30: < 3000 nM

SMILES: CC(C)COc1cc(F)cc(-c2ccc(C(=O)NS(=O)(=O)N3CC4CCC(C3)N4)c(N3C[C@@H](C)CC3(C)C)n2)c1 [Compound 2237, N-(3,8-diazabicyclo[3.2.1]octan-3-ylsulfonyl)-6-(3-fluoro-5-isobutoxy-phenyl)-2-[(4S)-2,2,4-trimethylpyrrolidin-1-yl]pyridine-3-carboxamide]
EC30: < 3000 nM

SMILES: Cc1cc(OCC(C)C)nn1-c1ccc(C(=O)NS(=O)(=O)c2cccnc2N)c(N2C[C@@H](C)CC2(C)C)n1 [Compound 2238, N-[(2-amino-3-pyridyl)sulfonyl]-6-(3-isobutoxy-5-methyl-pyrazol-1-yl)-2-[(4S)-2,2,4-trimethylpyrrolidin-1-yl]pyridine-3-carboxamide]
EC30: < 3000 nM

SMILES: COc1ccc(Oc2cccc(S(=O)(=O)NC(=O)c3cccnc3N3CC(C)CC3(C)C)n2)cc1 (centres unmarked) [Compound 2239, N—[[6-(4-methoxyphenoxy)-2-pyridyl]sulfonyl]-2-(2,2,4-trimethylpyrrolidin-1-yl)pyridine-3-carboxamide]
EC30: < 3000 nM

SMILES: COc1cccc(-c2ccc(C(=O)NS(=O)(=O)N3CC[C@H](N)C3)c(N3C[C@@H](C)CC3(C)C)n2)c1 [Compound 2240, N-[(3S)-3-aminopyrrolidin-1-yl]sulfonyl-6-(3-methoxyphenyl)-2-[(4S)-2,2,4-trimethylpyrrolidin-1-yl]pyridine-3-carboxamide]
EC30: 3000 to 10000 nM

SMILES: CCOc1cc(C)cc(-c2ccc(C(=O)NS(=O)(=O)c3cccnc3N)c(N3C[C@@H](C)CC3(C)C)n2)c1 [Compound 2241, N-[(2-amino-3-pyridyl)sulfonyl]-6-(3-ethoxy-5-methyl-phenyl)-2-[(4S)-2,2,4-trimethylpyrrolidin-1-yl]pyridine-3-carboxamide]
EC30: < 3000 nM

SMILES: CC(C)(C)c1ccc(C(=O)NS(=O)(=O)c2cccc(N)n2)c(N2CCC(CC3CC3)C2(C)C)n1 (centres unmarked) [Compound 2242, N-[(6-amino-2-pyridyl)sulfonyl]-6-tert-butyl-2-[3-(cyclopropylmethyl)-2,2-dimethyl-pyrrolidin-1-yl]pyridine-3-carboxamide]
EC30: < 3000 nM

SMILES: COc1ccc(-c2ccc(C(=O)NS(=O)(=O)c3cccnc3N)c(N3C[C@@H](C)CC3(C)C)n2)cn1 [Compound 2244, N-[(2-amino-3-pyridyl)sulfonyl]-6-(6-methoxy-3-pyridyl)-2-[(4S)-2,2,4-trimethylpyrrolidin-1-yl]pyridine-3-carboxamide]
EC30: < 3000 nM

SMILES: COc1cc(CO)cc(-c2ccc(C(=O)NS(=O)(=O)c3ccc[nH]c3=O)c(N3C[C@@H](C)CC3(C)C)n2)c1 [Compound 2247, 6-[3-(hydroxymethyl)-5-methoxy-phenyl]-N-[(2-oxo-1H-pyridin-3-yl)sulfonyl]-2-[(4S)-2,2,4-trimethylpyrrolidin-1-yl]pyridine-3-carboxamide]
EC30: 3000 to 10000 nM

SMILES: CC1CN(c2ncccc2C(=O)NS(=O)(=O)c2cccc(OCc3cccc4c3OCO4)n2)C(C)(C)C1 (centres unmarked) [Compound 2249, N—[[6-(1,3-benzodioxol-4-ylmethoxy)-2-pyridyl]sulfonyl]-2-(2,2,4-trimethylpyrrolidin-1-yl)pyridine-3-carboxamide]
EC30: < 3000 nM

SMILES: CC1CN(c2ncccc2C(=O)NS(=O)(=O)c2cccc(NC3CCCCC3)n2)C(C)(C)C1 (centres unmarked) [Compound 2250, N—[[6-(cyclohexylamino)-2-pyridyl]sulfonyl]-2-(2,2,4-trimethylpyrrolidin-1-yl)pyridine-3-carboxamide]
EC30: < 3000 nM

SMILES: CC1CN(c2ncccc2C(=O)NS(=O)(=O)c2cccc(N(C)CC(=O)OC(C)(C)C)n2)C(C)(C)C1 (centres unmarked) [Compound 2251, tert-butyl 2-[methyl-[6-[[2-(2,2,4-trimethylpyrrolidin-1-yl)pyridine-3-carbonyl]sulfamoyl]-2-pyridyl]amino]acetate]
EC30: < 3000 nM
